Laboratory results taken from ChEMBL document CHEMBL1136137, “Ring substituted analogues of 5-aminomethyl-10,11-dihydro-dibenzo[a,d]cycloheptene (AMDH): potential modes of binding to the 5-HT(2A) receptor” (Bioorg Med Chem Lett, 2003).

The molecules below were run against 5-hydroxytryptamine receptor 2A (Rattus norvegicus, UniProt P14842) (assay: Binding affinity towards 5-hydroxytryptamine 2A receptor sites by using [3H]ketanserin as radioligand).
Chain of 5-hydroxytryptamine receptor 2A (P14842 whole entry): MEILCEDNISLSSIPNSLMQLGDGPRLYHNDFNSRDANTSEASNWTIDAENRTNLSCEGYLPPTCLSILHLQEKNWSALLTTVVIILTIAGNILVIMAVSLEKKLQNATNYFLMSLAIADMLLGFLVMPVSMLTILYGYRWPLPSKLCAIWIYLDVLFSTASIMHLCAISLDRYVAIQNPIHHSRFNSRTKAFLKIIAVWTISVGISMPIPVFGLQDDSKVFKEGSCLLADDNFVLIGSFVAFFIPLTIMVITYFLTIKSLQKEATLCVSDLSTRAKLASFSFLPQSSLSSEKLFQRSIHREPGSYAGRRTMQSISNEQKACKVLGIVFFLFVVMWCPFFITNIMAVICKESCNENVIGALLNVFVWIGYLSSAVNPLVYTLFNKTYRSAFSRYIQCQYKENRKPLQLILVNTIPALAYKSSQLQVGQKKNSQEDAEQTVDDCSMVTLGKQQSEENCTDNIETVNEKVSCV

| Compound | Ki [nM] |
| --- | --- |
| NCC1c2ccccc2Cc2cc(CCCc3ccccc3)ccc21 (stereo unspecified) | 3.2 |
| NCC1c2ccccc2Cc2cc(Br)ccc21 (stereo unspecified) | 1.3 |
| COc1ccc2c(c1)Cc1ccccc1C2CN (stereo unspecified) | 7.5 |
| NCC1c2ccccc2CCc2cc(CCCc3ccccc3)ccc21 (stereo unspecified) | 81 |
| CCCCCCc1cc(OC)c(CC(C)N)cc1OC (stereo unspecified) | 2.5 |
| CCCCCCc1ccc2c(c1)Cc1ccccc1C2CN (stereo unspecified) | 7 |
| CCCCCCc1ccc2c(c1)CCc1ccccc1C2CN (stereo unspecified) | 630 |
| COc1ccc2c(c1)CCc1ccccc1C2CN (stereo unspecified) | 800 |
| COc1cc(OC)c(OC)cc1CC(C)N (stereo unspecified) | 1200 |
| NCC1c2ccccc2CCc2cc(Br)ccc21 (stereo unspecified) | 37 |
| COc1cc(CC(C)N)c(OC)cc1CCCc1ccccc1 (stereo unspecified) | 10 |
